The source of these data is patent US9328099B2, “Cyanomethylpyrazole carboxamides as janus kinase inhibitors” (Merck Sharp & Dohme Corp., priority 2011, dated 2016).

Where only a bound is given, the exact number is not on record here.

One assay has as its target JAK1 (Homo sapiens (Human), UniProt P23458). Put plainly: Jak Biochemical HTRF Assay, JAK1. The conditions noted are these: HTRF biochemical assay, GST-tagged catalytic domain; top concentration tested […]; read-out: JAK1 IC50. From the text:
(§1) Jak Biochemical HTRF Assay Protocol
(§2) Subsequent reagent additions employed an Agilent Bravo.
For orientation: Time-resolved FRET reads energy transfer from a long-lived donor to a nearby acceptor.

For a further assay, the target named is JAK2 (Homo sapiens (Human), UniProt O60674). As to the kind of experiment: Jak Biochemical HTRF Assay, JAK2. The conditions noted are these: HTRF biochemical assay, GST-tagged catalytic domain; top concentration tested […].
Chain of JAK2 (O60674 849-1124): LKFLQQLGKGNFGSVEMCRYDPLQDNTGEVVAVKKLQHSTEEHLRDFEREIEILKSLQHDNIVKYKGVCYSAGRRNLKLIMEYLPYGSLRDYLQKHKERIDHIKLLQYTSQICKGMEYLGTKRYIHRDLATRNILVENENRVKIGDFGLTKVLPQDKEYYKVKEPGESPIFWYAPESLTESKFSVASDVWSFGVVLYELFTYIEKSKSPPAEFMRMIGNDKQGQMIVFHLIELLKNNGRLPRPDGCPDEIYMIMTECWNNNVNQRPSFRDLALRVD
Source text: as §1, §2

Chain of JAK1 (P23458 875-1153): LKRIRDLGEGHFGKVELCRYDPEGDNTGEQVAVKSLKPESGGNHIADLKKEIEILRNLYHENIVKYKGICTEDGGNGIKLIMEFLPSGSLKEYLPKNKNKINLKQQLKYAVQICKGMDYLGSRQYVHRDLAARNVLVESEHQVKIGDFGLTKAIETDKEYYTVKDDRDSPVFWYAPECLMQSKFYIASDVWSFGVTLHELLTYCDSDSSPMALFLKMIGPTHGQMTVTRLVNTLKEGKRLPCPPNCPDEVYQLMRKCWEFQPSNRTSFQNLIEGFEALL

`COc1cccc(CN2CCC(CC#N)(n3cc(C(N)=O)c(Nc4ccnc(F)c4)n3)CC2)c1` [Example 22-63, 1-[4-(cyanomethyl)-1-(3-methoxybenzyl)piperidin-4-yl]-3-[(2-fluoropyridin-4-yl)amino]-1H-pyrazole-4-carboxamide]: the IC50 (usually the concentration needed to halve the response being measured) turned out to be 0.5 nM at JAK1 and 20 nM at JAK2.
On the same counts, the results for `N#CCC1(n2cc(C(N)=O)c(Nc3ccc(F)cc3)n2)CCN(Cc2cnccn2)CC1` [Example 22-52, 1-[4-(cyanomethyl)-1-(pyrazin-2-ylmethyl)piperidin-4-yl]-3-[(4-fluorophenyl)amino]-1H-pyrazole-4-carboxamide] are 1 nM and 25 nM.
On the same counts, the results for `CC(C)(C)OC(=O)N1CC(CC#N)(n2cc(C(N)=O)c(Nc3ccc(S(C)(=O)=O)cc3)n2)C1` [Example 2-5, tert-butyl 3-(4-carbamoyl-3-{[4-(methylsulfonyl)phenyl]amino}-1H-pyrazol-1-yl)-3-(cyanomethyl)azetidine-1-carboxylate] are 0.6 nM and 7 nM.
On the same counts, the results for `N#CCC1(n2cc(C(N)=O)c(Nc3ccccc3)n2)CCN(Cc2ccc(Cl)cc2F)CC1` [Example 21-21, 1-[1-(4-chloro-2-fluorobenzyl)-4-(cyanomethyl)piperidin-4-yl]-3-(phenylamino)-1H-pyrazole-4-carboxamide] are 3 nM and 44 nM.
Turning to `N#CCC1(n2cc(C(N)=O)c(Nc3ccccc3)n2)CCN(C(=O)/C=C/c2cccnc2)CC1` [Example 34-17, 1-{4-(cyanomethyl)-1-[(2E)-3-pyridin-3-ylprop-2-enoyl]piperidin-4-yl}-3-(phenylamino)-1H-pyrazole-4-carboxamide], the IC50 on JAK1 came to 10 nM; against JAK2, 158 nM.
For `N#CCC1(n2cc(C(N)=O)c(Nc3ccc(F)cc3)n2)CCN(Cc2cc(F)ccn2)CC1` [Example 22-50, 1-{4-(cyanomethyl)-1-[(4-fluoropyridin-2-yl)methyl]piperidin-4-yl}-3-[(4-fluorophenyl)amino]-1H-pyrazole-4-carboxamide], in that order: 0.6 nM and 16 nM.
As for `N#CCC1(n2cc(C(N)=O)c(Nc3ccnc(F)c3)n2)CCC(Nc2ccc(F)c(F)c2)CC1` (stereo not drawn) [Example 40-20, Cis or trans 1-{1-(cyanomethyl)-4-[(3,4-difluorophenyl)amino]cyclohexyl}-3-[(2-fluoropyridin-4-yl)amino]-1H-pyrazole-4-carboxamide], the values for the IC50 at JAK1 and against JAK2 were 1 nM and 43 nM, respectively.
As to `COc1ncc(N2CCC(CC#N)(n3cc(C(N)=O)c(Nc4ccc(F)cc4)n3)CC2)cn1` [Example 3-25, 1-[4-(cyanomethyl)-1-(2-methoxypyrimidin-5-yl)piperidin-4-yl]-3-[(4-fluorophenyl)amino]-1H-pyrazole-4-carboxamide], the IC50 on JAK1 turned out to be 0.7 nM; on JAK2, 21 nM.
With `N#CCC1(n2cc(C(N)=O)c(Nc3ccc(S(=O)(=O)C(F)(F)F)cc3)n2)CCN(C(=O)OCC(F)(F)F)CC1` [Example 10-2, 2,2,2-trifluoroethyl 4-(4-carbamoyl-3-(4-(trifluoromethylsulfonyl)phenylamino)-1H-pyrazol-1-yl)-4-(cyanomethyl)piperidine-1-carboxylate], the IC50 was found to be 0.5 nM on JAK1 and 4 nM against JAK2.
For `Cn1cc(-c2ccc(Nc3nn(C4(CC#N)CCN(C(=O)OCC(F)(F)F)CC4)cc3C(N)=O)cn2)cn1` [Example 11-1, 2,2,2-Trifluoroethyl 4-(4-carbamoyl-3-{[6-(1-methyl-1H-pyrazol-4-yl)pyridin-3-yl]amino}-1H-pyrazol-1-yl)-4-(cyanomethyl)piperidine-1-carboxylate], in that order: 0.03 nM and 0.5 nM.
For `N#CCC1(n2cc(C(N)=O)c(Nc3ccnc(F)c3)n2)CCN(Cc2cn[nH]c2)CC1` [Example 22-5, 1-[4-(cyanomethyl)-1-(1H-pyrazol-4-ylmethyl)piperidin-4-yl]-3-[(2-fluoropyridin-4-yl)amino]-1H-pyrazole-4-carboxamide], in that order: 6 nM and 70 nM.
On the same counts, the results for `COc1ccc(S(=O)(=O)N2CCC(CC#N)(n3cc(C(N)=O)c(Nc4ccccc4)n3)CC2)cc1` [Example 37-9, 1-{4-(cyanomethyl)-1-[(4-methoxyphenyl)sulfonyl]piperidin-4-yl}-3-(phenylamino)-1H-pyrazole-4-carboxamide] are 0.8 nM and 3 nM.
In the case of `N#CCC1(n2cc(C(N)=O)c(Nc3ccccc3)n2)CN(C(=O)OCCc2ccccn2)C1` [Example 30-67, 2-pyridin-2-ylethyl 3-[4-carbamoyl-3-(phenylamino)-1H-pyrazol-1-yl]-3-(cyanomethyl)azetidine-1-carboxylate], the results for the IC50 at JAK1 and at JAK2 were 108 nM and 849 nM, respectively.
Turning to `N#CCC1(n2cc(C(N)=O)c(Nc3ccnc(F)c3)n2)CCC(NCC(F)(F)F)CC1` (stereo not drawn) [Example 40-95, Cis or trans 1-{1-(cyanomethyl)-4-[(2,2,2-trifluoroethyl)amino]cyclohexyl}-3-[(2-fluoropyridin-4-yl)amino]-1H-pyrazole-4-carboxamide], the results for the half-maximal inhibitory concentration (IC50) at JAK1 and against JAK2 were 28 nM and 794 nM, respectively.
Take `N#CCC1(n2cc(C(N)=O)c(Nc3ccnc(F)c3)n2)CCC(NCc2ccc(F)cc2)CC1` (stereo not drawn) [Example 41-12, Cis or trans 1-{1-(cyanomethyl)-4-[(4-fluorobenzyl)amino]cyclohexyl}-3-[(2-fluoropyridin-4-yl)amino]-1H-pyrazole-4-carboxamide]: the IC50 is 0.2 nM on JAK1 and 9 nM against JAK2.
For `N#CCC1(n2cc(C(N)=O)c(Nc3ccccc3)n2)CCN(C(=O)OC2CCOCC2)CC1` [Example 30-37, tetrahydro-2H-pyran-4-yl 4-[4-carbamoyl-3-(phenylamino)-1H-pyrazol-1-yl]-4-(cyanomethyl)piperidine-1-carboxylate], in that order: 3 nM and 103 nM.
For `Cc1ccc(N2CCC(CC#N)(n3cc(C(N)=O)c(Nc4ccc(F)cc4)n3)CC2)cc1F` [Example 3-34, 1-[4-(cyanomethyl)-1-(3-fluoro-4-methylphenyl)piperidin-4-yl]-3-[(4-fluorophenyl)amino]-1H-pyrazole-4-carboxamide], in that order: 5 nM and 215 nM.
In the case of `N#CCC1(n2cc(C(N)=O)c(Nc3ccccc3)n2)CN(C(=O)Nc2cccc(F)c2)C1` [Example 38-1, 1-{3-(Cyanomethyl)-1-[(3-fluorophenyl)carbamoyl]azetidin-3-yl}-3-(phenylamino)-1H pyrazole-4-carboxamide], the IC50 was 3 nM at JAK1 and 68 nM on JAK2.
For `C[C@@H](NC(=O)N1CC(CC#N)(n2cc(C(N)=O)c(Nc3ccccc3)n2)C1)c1ccccc1` [Example 38-33, 1-[3-(cyanomethyl)-1-{[(1R)-1-phenylethyl]carbamoyl}azetidin-3-yl]-3-(phenylamino)-1H-pyrazole-4-carboxamide], in that order: 26 nM and 265 nM.
On the same counts, the results for `CC(C)(C)OC(=O)N1CCC(CC#N)(n2cc(C(N)=O)c(Nc3cccnn3)n2)CC1` [Example 13-6, tert-butyl 4-(4-carbamoyl-3-(pyridazin-3-ylamino)-1H-pyrazol-1-yl)-4-(cyanomethyl)piperidine-1-carboxylate] are 26 nM and 179 nM.
On the same counts, the results for `Cc1ccc(NC(=O)N2CC(CC#N)(n3cc(C(N)=O)c(Nc4ccc(S(C)(=O)=O)cc4)n3)C2)cc1` [Example 38-41, 1-{3-(cyanomethyl)-1-[(4-methylphenyl)carbamoyl]azetidin-3-yl}-3-{[4-(methylsulfonyl)phenyl]amino}-1H-pyrazole-4-carboxamide] are 13 nM and 175 nM.
Turning to `CC(C)(C)OC(=O)N1CCC(CC#N)(n2cc(C(N)=O)c(Nc3cccc(Cn4ccnc4)c3)n2)CC1` [Example 4-3, tert-butyl 4-(4-carbamoyl-3-{[3-(1H-imidazol-1-ylmethyl)phenyl]amino}-1H-pyrazol-1-yl)-4-(cyanomethyl)piperidine-1-carboxylate], the IC50 came to 0.6 nM at JAK1 and 11 nM on JAK2.
Take `N#CCC1(n2cc(C(N)=O)c(Nc3ccc(F)cc3)n2)CCC(N2CCc3ccccc32)CC1` (stereo not drawn) [Example 40-21, Cis or trans 1-[1-(cyanomethyl)-4-(2,3-dihydro-1H-indol-1-yl)cyclohexyl]-3-[(4-fluorophenyl)amino]-1H-pyrazole-4-carboxamide]: the IC50 was 171 nM at JAK1 and above 1500 nM at JAK2.
For `N#CCC(=O)N1CCC(CC#N)(n2cc(C(N)=O)c(Nc3ccccc3)n2)CC1` [Example 36-1, 1-[1-(Cyanoacetyl)-4-(cyanomethyl)piperidin-4-yl]-3-(phenylamino)-1H-pyrazole-4-carboxamide], in that order: 5 nM and 77 nM.
On the same counts, the results for `COc1ccc(N2CCC(CC#N)(n3cc(C(N)=O)c(Nc4ccc(F)cc4)n3)CC2)cn1` [Example 3-53, 1-[4-(cyanomethyl)-1-(6-methoxypyridin-3-yl)piperidin-4-yl]-3-[(4-fluorophenyl)amino]-1H-pyrazole-4-carboxamide] are 0.4 nM and 9 nM.
For `CC(C)(C)OC(=O)N1CC(CC#N)(n2cc(C(N)=O)c(Nc3ccccc3)n2)C1` [Example 2-3, tert-butyl 3-[4-carbamoyl-3-(phenylamino)-1H-pyrazol-1-yl]-3-(cyanomethyl)azetidine-1-carboxylate], in that order: 8 nM and 57 nM.
Regarding `CS(=O)(=O)c1ccc(Nc2nn(C3(CC#N)CN(C(=O)OC4CCOCC4)C3)cc2C(N)=O)cc1` [Example 30-76, tetrahydro-2H-pyran-4-yl 3-(4-carbamoyl-3-{[4-(methylsulfonyl)phenyl]amino}-1H-pyrazol-1-yl)-3-(cyanomethyl)azetidine-1-carboxylate], the values for the IC50 on JAK1 and on JAK2 were 74 nM and 285 nM, respectively.
